Patent publication US10206908B2, “3-(1H-pyrrolo[3,2-C]pyridin-2-YL)-1H-pyrazolo[3,4-C]pyridines and therapeutic uses thereof” (Samumed, LLC, priority 2015, dated 2019)

Key:
Format in all cases: cell-based
[1] = test system: Wnt activity (Sp5-Luc reporter, SW480 colon carcinoma cells); assay: Screening assay for Wnt activity: Sp5-Luc reporter gene assay in SW480 colon carcinoma cells; details: Homo sapiens; for EC50: Sp5-Luc reporter, SW480 cells, overnight incubation
Source text: The screening assay for Wnt activity is described as follows. Reporter cell lines can be generated by stably transducing cancer cell lines (e.g., colon cancer) or primary cells (e.g., IEC-6 intestinal cells) with a lentiviral construct that includes a Wnt-responsive promoter driving expression of the firefly luciferase gene.
SW480 colon carcinoma cells were transduced with a lentiviral vector expressing luciferase with a human Sp5 promoter consisting of a sequence of eight TCF/LEF binding sites. SW480 cells stably expressing the Sp5-Luc reporter gene and a hygromycin resistance gene were selected by treatment with 150 μg/mL of hygromycin for 7 days. These stably transduced SW480 cells were expanded in cell culture and used for all further screening activities. […] For Sp5-Luc reporter gene assays, the cells were plated at 4,000 cells/well in 384-well plates with medium containing 1% fetal bovine serum and incubated overnight at 37° C. and 5% CO2. Following incubation, 20 μl of BrightGlo luminescence reagent (Promega) was added to each well of the 384-well assay plates. The plates were placed on an orbital shaker for 2 min and then luminescence was quantified using the Envision (Perkin Elmer) plate reader. Readings were normalized to DMSO only treated cells, and normalized activities were utilized for EC50 calculations using the dose-response log (inhibitor) vs. response-variable slope (four parameters) nonlinear regression feature available in GraphPad Prism 5.0 (or Dotmatics).

[2] = test system: SW480 colon cancer cells; assay: Cell viability assay (CellTiter-Blue) in SW480 colon cancer cells; details: Homo sapiens; for EC50: 96 h, SW480 cell viability, four days; for inhibition at 10 µM: SW480, read-out: percent inhibition at 10 μM
Experimental: Representative compounds were screened using the following assay procedure to assess the effect on cell viability as described below.
Approximately 2×10^3 SW480 colon cancer cells were seeded into each well and allowed to incubate in the presence or absence of compound for four days at 37° C./5% CO2. Eight replicates of DMSO-treated cells served as controls and cells treated with compound were performed in duplicate.
After incubation, 20 μL of CellTiter-Blue (Promega) was added to each well allowed to incubate for approximately 3 hours. This reagent was a buffered solution which contains resazurin, metabolically active cells were able to reduce rezarurin (blue) into resorufin (pink) which was highly fluorescent. This measured fluorescence was used as a readout for cell viability.

[3] = test system: primary human fibroblasts derived from IPF patients (LL29 cells) treated with TGF-β1; assay: Inhibition of the fibrotic process: αSMA staining in TGF-β1 treated LL29 fibroblasts; details: Fibroblast; for EC50: 96 h, % αSMA positive LL29 cells, TGF-β1 20 ng/mL, 4 days
Experimental: Representative compounds were screened using primary human fibroblasts (derived from IPF patients) treated with TGF-β1 to determine their ability to inhibit the fibrotic process.
LL29 cells are plated at 1,500 cells/well in 80 μL/well F12 medium supplemented with 1% Fetal Bovine Serum. […] Wells treated with TGF-β1 and containing DMSO were used as controls. […] Following incubation for 4 days, SYTOX green nucleic acid stain (Life Technologies [Thermo Fisher Scientific]) was added to the wells at a final concentration of 1 μM and incubated at room temperature for 30 min.

[4] = test system: IL-6 (THP-1 cells); assay: IL-6 inhibition in LPS-stimulated THP-1 monocytes (HTRF); details: Homo sapiens; for EC50: IL-6, THP-1 cells, LPS 500 ng/mL, 22 hours; for inhibition at 10 µM: THP-1, read-out: percent inhibition at 10 μM
Experimental: Compound Screening: THP-1 cells were cultured in basal media with 1% FBS for 24 hours before the start of the assay. […] THP-1 cells were plated at 5000 cells/well in the 384-well plates and incubated at 37° C. for 2 h. 500 ng/mL of LPS was added after 2 hours and cells were incubated for another 22 hours at 37° C. Plates were spun in a centrifuge for 1 minute at […] and a mixture of anti-IL6 XL665, and anti-IL6 Cryptate diluted in reconstitution buffer (Cisbio Inc.) was added to each well. Following incubation for 3 hrs at room temperature, Homogeneous Time-Resolved Fluorescence (HTRF) was measured using the Envision (Perkin Elmer) at 665 nm and […]. The ratio of fluorescence at 665 nm to 620 nm was used as a readout for IL6 quantification. All samples were processed in duplicate. Readings were normalized to DMSO treated cells and normalized activities were utilized for EC50 calculations using the dose-response log (inhibitor) vs. response-variable slope (four parameters) nonlinear regression feature available in GraphPad Prism 5.0 (or Dotmatics).

EC50 [1] [nM]	EC50 [2] [nM]	EC50 [4] [nM]	SMILES	EC50 [3] [nM]	inhibition at 10 µM [2] [%]	inhibition at 10 µM ([3]; read-out: percent inhibition at 10 μM) [%]	inhibition at 10 µM [4] [%]	inhibition at 10 µM ([1]; SW480, read-out: percent inhibition at 10 μM) [%]
> 10000	> 10000	> 10000	CC(C)CC(=O)Nc1cncc(-c2cc3c(-c4cc5c(-c6cccnc6)nccc5[nH]4)n[nH]c3cn2)c1 [Compound 86, 3-Methyl-N-(5-(3-(4-(pyridin-3-yl)-1H-pyrrolo[3,2-c]pyridin-2-yl)-1H-pyrazolo[3,4-c]pyridin-5-yl)pyridin-3-yl)butanamide]	1920	3.6		0	29.9
418	> 10000	> 10000	c1cc(-c2cc3c(-c4cc5c(-c6ccncc6)nccc5[nH]4)n[nH]c3cn2)ccn1 [Compound 130, 5-(Pyridin-4-yl)-3-(4-(pyridin-4-yl)-1H-pyrrolo[3,2-c]pyridin-2-yl)-1H-pyrazolo[3,4-c]pyridine]	96	36.6		0	
1250	1500	1780	CC(C)CC(=O)Nc1cncc(-c2cc3c(-c4cc5c(N6CCCCC6)nccc5[nH]4)n[nH]c3cn2)c1 [Compound 170, 3-Methyl-N-(5-(3-(4-(piperidin-1-yl)-1H-pyrrolo[3,2-c]pyridin-2-yl)-1H-pyrazolo[3,4-c]pyridin-5-yl)pyridin-3-yl)butanamide]	2360				

The remaining lines, values behind:

SMILES	EC50 [1] [nM]	EC50 [2] [nM]	EC50 [4] [nM]	EC50 [3] [nM]	inhibition at 10 µM [2] [%]	inhibition at 10 µM ([3]; read-out: percent inhibition at 10 μM) [%]	inhibition at 10 µM [4] [%]	inhibition at 10 µM ([1]; SW480, read-out: percent inhibition at 10 μM) [%]
CC(C)(C)C(=O)Nc1cncc(-c2cc3c(-c4cc5c(-c6cccc(F)c6)nccc5[nH]4)n[nH]c3cn2)c1 [Compound 8, N-(5-(3-(4-(3-Fluorophenyl)-1H-pyrrolo[3,2-c]pyridin-2-yl)-1H-pyrazolo[3,4-c]pyridin-5-yl)pyridin-3-yl)pivalamide]	1180	1720	940	627				
O=C(Nc1cncc(-c2cc3c(-c4cc5c(-c6cccc(F)c6)nccc5[nH]4)n[nH]c3cn2)c1)c1ccccc1 [Compound 11, N-(5-(3-(4-(3-Fluorophenyl)-1H-pyrrolo[3,2-c]pyridin-2-yl)-1H-pyrazolo[3,4-c]pyridin-5-yl)pyridin-3-yl)benzamide]	3820	> 10000	> 10000	> 10000	34.7	0	26.9	
CCCCC(=O)Nc1cncc(-c2cc3c(-c4cc5c(-c6cccc(F)c6)nccc5[nH]4)n[nH]c3cn2)c1 [Compound 19, N-(5-(3-(4-(3-Fluorophenyl)-1H-pyrrolo[3,2-c]pyridin-2-yl)-1H-pyrazolo[3,4-c]pyridin-5-yl)pyridin-3-yl)pentanamide]	1140	1330	1090	960				
O=C(Nc1cncc(-c2cc3c(-c4cc5c(-c6cccc(F)c6)nccc5[nH]4)n[nH]c3cn2)c1)C1CCCCC1 [Compound 23, N-(5-(3-(4-(3-Fluorophenyl)-1H-pyrrolo[3,2-c]pyridin-2-yl)-1H-pyrazolo[3,4-c]pyridin-5-yl)pyridin-3-yl)cyclohexanecarboxamide]	1230	1440	2030	678				
CC(C)Nc1cncc(-c2cc3c(-c4cc5c(-c6ccc(F)cc6)nccc5[nH]4)n[nH]c3cn2)c1 [Compound 40, 5-(3-(4-(4-Fluorophenyl)-1H-pyrrolo[3,2-c]pyridin-2-yl)-1H-pyrazolo[3,4-c]pyridin-5-yl)-N-isopropylpyridin-3-amine]	343	773	380	56				
O=C(Cc1ccccc1)Nc1cncc(-c2cc3c(-c4cc5c(-c6ccccc6F)nccc5[nH]4)n[nH]c3cn2)c1 [Compound 66, N-(5-(3-(4-(2-Fluorophenyl)-1H-pyrrolo[3,2-c]pyridin-2-yl)-1H-pyrazolo[3,4-c]pyridin-5-yl)pyridin-3-yl)-2-phenylacetamide]	2000	1850	3250	3310				
